Experimental findings from patent publication US10981932B2, “Macrocyclic indole derivatives” (Bayer Aktiengesellschaft, priority 2016, dated 2021) are described below.

“And” between values parts separate entries of the source, which are not always exact repeats. Identical values can stand only once. Like-named read-outs stand apart in the source and are kept apart here. Where only a bound is given, the exact number is not on record here.

In data set [1] the test system is SUDHL5. Put plainly: Induction of caspase-3/7 activity (Caspase-Glo 3/7), SUDHL5. The data set is classed as cell-based. The following applies: caspase-3/7 induction, SUDHL5 cells, 3 h treatment, median. As for the experimental part:
(§1) Induction of Caspase-317 Activity Upon Treatment of Cells with Selected Compounds
(§2) The BH3-domain of MCL-1 sequesters pro-apoptotic proteins, thereby inhibiting apoptosis. In contrast, MCL-1 inhibitors are expected to antagonize this effect leading to an increase in apoptosis, which can be determined by measuring the activity of caspase-3/7.
(§3) The activity of caspase-3/7 was determined in DLBCL (Diffuse large B-cell lymphoma) cell lines (SUDHL5 and SUDHL10) upon treatment with different compounds, using the Caspase-Glo® 3/7 reagent from Promega (G8092).
(§4) Rim wells were excluded. The cells were incubated for 3 h hours in a humidified incubator at 37° C.
(§5) For the evaluation of the results, the background measured with “medium-only” was subtracted from all other values. […] The Bella DRC Master Sheet was used to calculate EC50s, with fixed C0=1 and CI=plateaulmax induction for the reference compound.

Data set [2] has as its system SUDHL10. Put plainly: Induction of caspase-3/7 activity (Caspase-Glo 3/7), SUDHL10. The data set is classed as cell-based. The following applies: caspase-3/7 induction, SUDHL10 cells, 3 h treatment, median. The procedure: as §1, §2, §3, §4, §5
Data set [3] has as its system SUDHL10. Put plainly: Induction of cytotoxicity (CellTiter-Glo, 5 h), SUDHL10.
The test system of data set [4] is SUDHL5. Description: Induction of cytotoxicity (CellTiter-Glo, 5 h), SUDHL5.
In data set [5] the target is MCL-1 (Homo sapiens, UniProt Q07820). Description: Protein-protein interaction assay MCL-1/Noxa BH3 peptide (MCL-1 assay), TR-FRET. The settings on record: MBP-MCL-1 / Noxa BH3-derived peptide, median. The data set is classed as binding. As for the experimental part: Protein-Protein Interaction Assay: MCL-1/Noxa BH3 Peptide (MCL-1 Assay) […]
Chain of MCL-1 (Q07820 whole entry): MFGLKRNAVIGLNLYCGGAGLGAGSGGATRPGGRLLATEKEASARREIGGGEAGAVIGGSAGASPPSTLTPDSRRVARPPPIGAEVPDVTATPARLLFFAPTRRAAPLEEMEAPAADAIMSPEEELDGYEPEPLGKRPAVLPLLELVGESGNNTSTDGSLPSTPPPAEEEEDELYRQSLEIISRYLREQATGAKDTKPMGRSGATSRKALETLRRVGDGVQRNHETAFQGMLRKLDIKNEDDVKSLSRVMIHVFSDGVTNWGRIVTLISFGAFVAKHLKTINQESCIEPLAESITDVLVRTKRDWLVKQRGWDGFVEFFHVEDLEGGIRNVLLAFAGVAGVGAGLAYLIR
In the assay 11 different concentrations of each compound (0.1 nM, 0.33 nM, 1.1 nM, 3.8 nM, 13 nM, 44 nM, 0.15 μM, 0.51 μM, 1.7 μM, 5.9 μM and 20 μM) were typically measured as duplicates in the same microtiter plate. For that, 100-fold concentrated DMSO solutions were prepared by serial dilutions (1:3.4) of a 2 mM stock solution in a clear, 384-well microtiter plate (Greiner Bio-One, Frickenhausen, Germany). From there, 50 ni were transferred in a dark test plate (Greiner Bio-One, Frickenhausen, Germany). The assay was initiated by addition of 2 μl of a 2.5-fold concentrated MBP-MCL-1 solution (usually for a 1 nM end concentration in 5 μl reaction volume) in aqueous assay buffer [50 mM Tris/HCl pH 7, 100 mM sodium chloride (NaCl), 50 mM potassium fluoride (KF), 0.005% Tween-20, 2 mM DTT, 0.1% bovine gamma globulin (BGG)] to the compounds in the assay plate. This was followed by a 10-minute incubation step at 22° C. for pre-equilibration of the putative complex between MBP-MCL-1 and the compounds. After that.
The mixture was incubated in the dark for one hour at 22° C. and then overnight at 4° C. The formation of MCL-1/Noxa complexes was determined by measuring the resonance energy transfer of the anti-MBP- Eu-cryptate antibody to the streptavidin-XL665 present in the reaction. For that purpose, the fluorescence emission at 620 nm and 665 nm after excitation at 330-350 nm was measured in a TR-FRET measuring instrument, for instance a Rubystar or a Pherastar (both from BMG Lab Technologies, Offenburg, Germany) or a Viewlux (Perkin-Elmer). The ratio of the emission at 665 nm and at 622 nm was used as indicator of the amount of MCL-1/NOXA complexes present.
The resulting data (ratio) were normalized, taking 0% inhibition as the mean value of control measurements (usually 32 data points) where all reagents were included. In this case 50 nl DMSO were used instead of compounds. A 100% inhibition corresponded to the mean value of control measurements (usually 32 data points) where all reagents except MCL-1 were included. IC50 values were determined by regression analysis based on a 4 parameter equation (minimum, maximum, IC50, Hill; Y=Max+(Min−Max)/(1+(X/IC50)^Hill) using the Screener Software (Genedata).

In data set [6] the test system is A2780. Description: Anti-proliferative effect (CellTiter-Glo, 72 h), A2780. The data set is classed as cell-based. The following applies: Homo sapiens, A2780, 72 h, A2780 cells, median, read-out: IC50 antiproliferation assay A2780 [M] (median). The procedure:
Assessment of the Anti-Proliferative Effect of Compounds in Different Cell Lines
The impact of compounds on the proliferation of different cell lines was assessed using the CellTiter-Glo® Luminescent Cell Viability reagent from Promega (G7573). Of note, SUDHL10 and SUDHL5 (DLBCL), NCI-H929 (Multiple Myeloma), A2780 (ovarian carcinoma) as well as MV-4-11(AML) cells are sensitive to MCL-1 inhibition.
In parallel, cells were plated in a reference (day 0) plate for time zero determination.
Rim wells were excluded. The cells were incubated for 72 h hours in a humidified incubator at 37° C. The day 0 plate was measured by adding 30 μl/well of CTG solution (CellTiter-Glo® Luminescent Cell Viability reagent, Promega G7573) to time zero wells in the reference plate followed by a 10 minutes incubation and luminescence reading at 0.1 ms, using the PHERAstar FS microplate reader (BMG Labtech).
After 72 h incubation, the treated plates were measured in the same way as the day 0 plate mentioned above.

The mark [7] stands for this setting: Homo sapiens, SU-DHL10, 5 h, read-out: Cytotox SUDHL10 [M] (median), SUDHL10 cells, cytotoxicity induction, CellTiter-Glo, 5 h incubation, median.
Where [8] appears, read: Homo sapiens, SU-DHL-5, 5 h, read-out: Cytotox SUDHL5 [M] (median), SUDHL5 cells, cytotoxicity induction, CellTiter-Glo, 5 h incubation, median.
Where [9] appears, read: read-out: Cytotox SUDHL10 [M] (median), SUDHL10 cells, cytotoxicity induction, CellTiter-Glo, 5 h incubation, median.

On to `CC(=O)N1CCN(c2ccc(OCc3nn(C)c4c3-c3cccc5c(CCCOc6cccc7ccccc67)c(C(=O)O)n(c35)CC=CCOC4)cc2)CC1` (racemic) [Example 1-1, (rac)-(E/Z)-3-{[4-(4-acetylpiperazin-1-yl)phenoxy]methyl}-1-methyl-7-[3-(naphthalen-1-yloxy)propyl]-1,10,13,25-tetrahydropyrazolo[4′,3′:9,10][1,6]oxazacycloundecino[8,7,6-hi]indole-8-carboxylic Acid], for which the half-maximal effective concentration (EC50) in data set [1] (Homo sapiens, SU-DHL-5, 3 h) was 14.8 µM; in data set [2] (Homo sapiens, SU-DHL10, 3 h) it was 22.5 µM. Also, the IC50 in data set [3] (setting [7]) and in data set [4] (setting [8]) was more than 3.3e-05 M each time.

Regarding `Cn1nc(COc2ccc(N3CCNCC3)cc2)c2c1COCC=CCn1c(C(=O)O)c(CCCOc3cccc4ccccc34)c3cccc-2c31` (racemic) [Example 1-2, (rac)-(E/Z)-1-methyl-7-[3-(naphthalen-1-yloxy)propyl]-3-{[4-(piperazin-1-yl)phenoxy]methyl}-1,10,13,15-tetrahydropyrazolo[4′,3′:9,10][1,6]oxazacycloundecino[8,7,6-hi]indole-8-carboxylic Acid], the values for the IC50 in data set [5], in data set [3] (setting [7]) and in data set [4] (setting [8]) were 0.0706 µM, more than 3.3e-05 M and more than 3.3e-05 M, respectively. Also, the EC50 is more than 33 µM in data set [1] (Homo sapiens, SU-DHL-5, 3 h) and more than 33 µM in data set [2] (Homo sapiens, SU-DHL10, 3 h).

Regarding `CN1CCCn2c(C(=O)O)c(CCCOc3cccc4ccccc34)c3cccc(c32)-c2c(COCc3ccccc3)nn(C)c2C1` (racemic) [Example 1-93, (rac)-11-[(benzyloxy)methyl]-7,9-dimethyl-1-[3-(naphthalen-1-yloxy)propyl]-4,5,6,7,8,9-hexahydropyrazolo[3′,4′:7,8][1,5]diazecino[9,10,1-hi]indole-2-carboxylic Acid], the results for the IC50 in data set [5], in data set [3] (setting [7]) and in data set [4] (setting [8]) were 0.0749 µM, more than 3.3e-05 M and more than 3.3e-05 M, respectively. In addition, the half-maximal effective concentration (EC50) was more than 33 µM in data set [1] (Homo sapiens, SU-DHL-5, 3 h) and 31.8 µM in data set [2] (Homo sapiens, SU-DHL10, 3 h).

As to `Cn1nc(COCc2ccccc2)c2c1COCC=CCn1c(C(=O)O)c(CCCOc3cccc4ccccc34)c3cccc-2c31` (racemic) [Example 1-94, (rac)-(E/Z)-3-[(benzyloxy)methyl]-1-methyl-7-[3-(naphthalen-1-yloxy)propyl]-1,10,13,15-tetrahydropyrazolo[4′,3′9,10][,6]oxazacycloundecino[8,7,6-hi]indole-8-carboxylic Acid], the values for the IC50 in data set [5], in data set [3] (setting [7]) and in data set [4] (setting [8]) were 0.141 µM, more than 3.3e-05 M and more than 3.3e-05 M, respectively. Further, the EC50 in data set [1] (Homo sapiens, SU-DHL-5, 3 h) is more than 33 µM; in data set [2] (Homo sapiens, SU-DHL10, 3 h), more than 33 µM.

Turning to `Cn1nc2c(c1CN1CCOCC1)-c1cccc3c(CCCOc4cccc5ccccc45)c(C(=O)O)n(c13)CCCCOC2` (racemic) [Example 078, (rac)-2-Methyl-3-(morpholin-4-ylmethyl)-7-[3-(naphthalen-1-yloxy)propyl]-2,10,11,12,13,15-hexahydropyrazolo[4′,3′:9,10][1,6]oxazacycloundecino[8,7,6-hi]indole-8-carboxylic Acid], the results for the IC50 in data set [6] and in data set [5] were 1.96e-05 M and 0.0131 µM, respectively. Besides, the EC50 in data set [1] (Homo sapiens, SU-DHL-5, 3 h) is 14.1 µM; in data set [2] (Homo sapiens, SU-DHL10, 3 h), more than 33 µM.

Take `Cn1nc(COc2ccccc2)c2c1COCCCCn1c(C(=O)O)c(CCCOc3cccc4ccccc34)c3cccc-2c31` (single isomer, unassigned) [Example 1-79, 1-methyl-7-[3-(naphthalen-1-yloxy)propyl]-3-(phenoxymethyl)-1,10,11,12,13,15-hexahydropyrazolo[4′3′:9,10][1,6]oxazacycloundecino[8,7,6-hi]indole-8-carboxylic Acid]: the IC50 in data set [5] is 0.656 µM; in data set [3] (setting [7]), 3.09e-05 M; in data set [4] (setting [8]) it was more than 3.3e-05 M. Also, the EC50 in data set [1] (Homo sapiens, SU-DHL-5, 3 h) was more than 33 µM; in data set [2] (Homo sapiens, SU-DHL10, 3 h), 20.7 µM.

In the case of `Cn1nc(COc2ccccc2)c2c1COCCCCn1c(C(=O)O)c(CCCOc3cccc4ccccc34)c3cccc-2c31` (single isomer, unassigned) [Example 1-80, 1-methyl-7-[3-(naphthalen-1-yloxy)propyl]-3-(phenoxymethyl)-1,10,11,12,13,15-hexahydropyrazolo[4′,3′:9,10][1,6]oxazacycloundecino[8,7,6-hi]indole-8-carboxylic Acid], the IC50 is 0.0501 µM in data set [5]; more than 3.3e-05 M in data set [3] (setting [9]); more than 3.3e-05 M in data set [4] (read-out: Cytotox SUDHL5 [M] (median), SUDHL5 cells, cytotoxicity induction, CellTiter-Glo, 5 h incubation, median). In addition, the EC50 in data set [1] and in data set [2] was more than 33 µM throughout.

For the compound `Cc1ccc2c(CCCOc3cccc4ccccc34)c(C(=O)O)n3c2c1-c1c(nn(C)c1C)COCCCC3` (single isomer, unassigned; enantiomer 1) [Example 076, 2,3,4-trimethyl-7-[3-(naphthalen-1-yloxy)propyl]-2,10,11,12,13,15-hexahydropyrazolo[4′,3′:9,10][1,6]oxazacycloundecino[8,7,6-hi]indole-8-carboxylic Acid (Enantiomer 1)], the IC50 came out at 2.28e-05 M in data set [6] and 0.00145 µM in data set [5]. The EC50 in data set [1] is 1.32 µM; in data set [2], 3.54 µM.

With `Cc1nn(C)c2c1-c1cccc3c(CCCOc4cccc5ccccc45)c(C(=O)O)n(c13)CCCN(c1ccc(N3CCN(S(=O)(=O)N(C)C)CC3)cc1)C2` (single isomer, unassigned; enantiomer 2) [Example 1-107, 7-{4-[4-(Dimethylsulfamoyl)piperazin-1-yl]phenyl}-9,11-dimethyl-1-[3-(1-naphthyloxy)propyl]-4,5,6,7,8,9-hexahydropyrazolo[3′,4′:7,8][1,5]diazecino[9,10,1-hi]indole-2-carboxylic Acid (Enantiomer 2)], the IC50 in data set [5] is 0.0897 µM; in data set [3] (setting [9]), 2.89e-05 M and > 3.3e-05 M. For the same compound, the EC50 in data set [1] is 19.4 µM and > 33 µM.
